The source of these data is US6498195B2, “Use of 1-propanone-1-(2,4-dihydroxyphenyl)-3-hydroxy-3-(4′-hydroxyphenyl) as an anticarcinogenic agent” (Rutgers, The State University of New Jersey, priority 2000, dated 2002).

Assay [1] concerns microtubule structure. The note with it: stated as 'has been shown'; cited from earlier work.
A further assay relates to bcl-2. Description: Bcl-2 expression and phosphorylation assay (Western blot mobility shift). In kind it is cell-based. The note with it: for bcl-2 phosphorylation: immunoblotting, slower migrating band vs vehicle control, cell line not stated. The procedure: Analysis of bcl-2 protein expression was performed using a Western blot assay as previously described (Haldar, S. et al. 1996. Cancer Res. 56:1253; Haldar, S. et al. 1995. Proc. Natl. Acad. Sci. USA 92:4507-4511). Protein identification was made using a monoclonal bcl-2 primary antibody (DAKO Corporation) and secondary goat anti-mouse horseradish peroxidase conjugated antibody (Bio-Rad Laboratories, Richmond, CA). The phosphorylation of bcl-2 was determined by mobility shifts in the Western bolt as described by Haldar (Haldar, S. et al. 1996. Cancer Res. 56:1253; Haldar, S. et al. 1995. Proc. Natl. Acad. Sci. USA 92:4507-4511).

For assay [2], the system named is microtubule structure. Description: Microtubule assay (indirect immunofluorescence). In kind it is cell-based. The procedure: Microtubule structure was assessed by indirect immunofluorescence as previously described (Zhang, C. C. et al. 1998. Oncogene 16:1617-1624). Cells were grown on coverslips and fixed in ice-cold methanol at −20° C. after drug treatment. The cells were then incubated with a 1:100 dilution of monoclonal anti-alpha-tubulin antibody (Clone DM 1A, mouse ascites fluid; Sigma) in 3% BSA in PBS for 30 minutes and washed in 3% BSA in PBS for 10 minutes. This was followed by incubation with FITC-goat anti-mouse IgG (1:50 dilution) as a secondary antibody for 30 minutes and washed in 3% BSA/PBS and visualized under a epifluorescent microscope (Zeiss AXIOSKOP) using a plan-NEOFLUAR 100 X oil immersion objective. The photographs were captured on a cooled CCD camera (DAGE-MTI) using Scion Image.

In another assay the test system is MCF-7 tumor cells. Description: Cell cycle analysis by flow cytometry. In kind it is cell-based. The method, then: Cells were treated for 24 hours, incubated with 10 μM BrdU for 45 minutes at 37° C. Cells were then washed with ice-cold PBS, resuspended in 200 μl PBS and fixed with cold 70% ethanol. The cells were resuspended, incubated for 30 minutes in 2 N HCl/0.5% Triton X-100 in PBS, and neutralized by rinsing once in 0.1 M sodium tetraborate (pH 8.5). Fluorescein isothiocyanate (FITC)-conjugated anti-BrdU antibody (Becton Dickinson) was added (10 μg/sample) in 50 μl of 0.5% Tween 20/1% BSA in PBS and incubated for 30 minutes. The cells were washed and resuspended in 1 ml of PBS containing 5 μg/ml propidium iodide. Fluorescence intensity was determined by quantitative flow cytometry and profiles were generated on a Becton Dickinson FACScan. A minimum of 10,000 cells were analyzed.
For orientation: In flow cytometry, cells or beads pass a laser one at a time.

Another assay has as its system MCF-7 cells. The method, then: The Apoalert Annexin V-EGFP method (CLONTECH, Palo Alto, Calif.) was used to assess for apoptosis. Briefly, tumor cells were treated for 2 hours and cells were washed with fixing solution and stained with Annexin V-EGFP and propidium iodide for 15 minutes in the dark. Cells were viewed using a Nikin Eclipse TE-200 (Nikon Corporation, Tokyo, Japan) inverted fluorescent microscope. Photographs were captured using a SPOT digital camera (Diagnostic, Inc., Sterling Heights, Mich.) in combination with SPOT […] (Pharmingen, San Diego, Calif.). Cells (1×10^6 per dish) were treated for 12 hours, washed with PBS, and fixed in 1% paraformaldehyde in ice for 30 minutes. After fixation, cells were washed twice with PBS and fixed in 70% ethanol. The pellets were washed and resuspended in 50 μl of the DNA labeling solution containing Br-dUTP and TdT enzyme and incubated for 60 minutes at 37° C. After incubation, the pellets were washed, incubated with FITC labeled anti-BrdU antibody in the dark for 30 minutes at room temperature, and stained with propidium iodide and RNase. The stained cells were analyzed by flow cytometry after 30 minutes. Cell viability was assessed by the tetrazolium dye method as previously described (Scudiero, D.A. et al. 1988. Cancer Res. 48:4827-4833).

Where two headings read alike, the source gives them in different places.

As usually defined, the IC50 is the concentration that inhibits the measured activity by half.

Regarding `CC(=O)O[C@H]1C(=O)[C@@]2(C)[C@H]([C@H](OC(=O)c3ccccc3)[C@]3(O)C[C@H](OC(=O)[C@H](O)[C@@H](NC(=O)c4ccccc4)c4ccccc4)C(C)=C1C3(C)C)[C@]1(OC(C)=O)CO[C@@H]1C[C@@H]2O` [paclitaxel], in the assay on microtubule structure [1], the “effect on microtubule structure” value is reported as “induce microtubule bundles”.

`O=C(CC(O)c1ccc(O[C@@H]2O[C@H](CO)[C@@H](O)[C@H](O)[C@H]2O)cc1)c1ccc(O)cc1O` (single isomer, unassigned; peak 1) [peak 1, 1-propanone-1-(2,4-dihydroxyphenyl)-3-hydroxy-3-(4′-hydroxyphenyl-4′o-beta-D-glucapyranoside)]: the bcl-2 phosphorylation result in the assay with bcl-2 was “induce bcl-2 phosphorylation”.

In the case of `O=C(CC(O)c1ccc(O)cc1)c1ccc(O[C@@H]2O[C@H](CO)[C@@H](O)[C@H](O)[C@H]2O)cc1O` (single isomer, unassigned; peak 2) [peak 2, 1-propanone-1-(2,4-dihydroxyphenyl-4′-o-beta-D-glucopyranoside)-3-hydroxy-3-(4′-hydroxyphenyl)], in the assay with bcl-2, the bcl-2 phosphorylation entry was “induce bcl-2 phosphorylation”.

For the molecule `O=C(CC(O)c1ccc(O)cc1)c1ccc(O)cc1O` (stereo not shown) [DC, 1-propanone-1-(2,4-dihydroxyphenyl)-3-hydroxy-3-(4′-hydroxyphenyl)], the “effect on microtubule structure” value in the assay with microtubule structure [2] is reported as “induce microtubule fragmentation”. Further, the “G2/M cell cycle arrest” value in the assay with MCF-7 tumor cells is “induced a G2/M cell cycle arrest”. Moreover, the IC50 in the assay with MCF-7 cells (read-out: IC50, decrease of cell viability, 72 hours) is 13 µM. In addition, the “apoptosis (extracellular phosphatidylserine detection)” value with MCF-7 cells (similar to 10 μM camptothecin control) is given as “induced apoptosis”. The “phosphorylation of bcl-2” value in the assay on bcl-2 (DUPro-1 tumor cells) and in the assay on bcl-2 (MCF-7 tumor cells) was “induce phosphorylation of bcl-2” in each case. For the same molecule, the bcl-2 phosphorylation entry in the assay on bcl-2 was “induce bcl-2 phosphorylation”.
